Source: ChEMBL document CHEMBL1142760, “Glycosidase inhibition by 1-glycosyl-4-phenyl triazoles” (Bioorg Med Chem Lett, 2005)

Legend:
[1] = molecular target: T1, Alpha-galactosidase (Escherichia coli K-12) (UniProt P06720); assay: Percent inhibition against Escherichia coli galactosidase at 0.24 mM; n>=2
T1 sequence (whole entry): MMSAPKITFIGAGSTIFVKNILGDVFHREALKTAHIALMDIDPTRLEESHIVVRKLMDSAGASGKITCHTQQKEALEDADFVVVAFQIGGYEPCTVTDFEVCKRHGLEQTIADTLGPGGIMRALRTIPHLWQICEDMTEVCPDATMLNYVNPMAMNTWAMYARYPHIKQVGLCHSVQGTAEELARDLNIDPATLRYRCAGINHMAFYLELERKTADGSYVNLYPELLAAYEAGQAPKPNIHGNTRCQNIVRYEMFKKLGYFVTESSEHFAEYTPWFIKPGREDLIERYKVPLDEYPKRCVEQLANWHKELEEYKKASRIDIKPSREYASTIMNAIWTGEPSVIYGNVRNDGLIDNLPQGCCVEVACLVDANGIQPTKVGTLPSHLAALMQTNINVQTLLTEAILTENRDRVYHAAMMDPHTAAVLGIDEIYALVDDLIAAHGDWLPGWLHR

[2] = molecular target: T1, Alpha-galactosidase (Escherichia coli K-12); assay: Percent inhibition against Escherichia coli galactosidase at 0.24 mM; n>=3

SMILES | inhibition [1] | inhibition [2]
OC[C@@H]1O[C@@H](n2cc(-c3ccccc3)nn2)[C@@H](O)[C@@H](O)[C@@H]1O | < 20% | –
OC[C@@H]1O[C@@H](n2cc(-c3ccccc3)nn2)[C@@H](O)[C@@H](O)[C@H]1O | – | 30%
OC[C@H]1NC[C@H](O)[C@@H](O)[C@@H]1O | – | < 20%
